Data on 4 compounds can be found in article PMC6272027, “Trithiocyanurate Complexes of Iron, Manganese and Nickel and Their Anticholinesterase Activity” (Molecules, 2014).

In this assay the target is cholinesterases (rat brain homogenate). The experiment in a line: In vitro anticholinesterase inhibition test (rat brain homogenate, acetylcholine iodide substrate, automatic titration). The assay is classed as biochemical. To be noted: anticholinesterase activity in vitro; for IC50: rat brain homogenate, substrate acetylcholine iodide; for HillSlope: nonlinear regression (GraphPad Prism). The procedure:
In vitro inhibition test was conducted as described earlier. Solutions of the prepared Fe(L1)](ttcH2)(ClO4)·EtOH·H2O (1), [Mn3(phen)6(ttc)](ClO4)3 (2), and Ni2(L2)(ttcH)(ClO4)2·6H2O·EtOH (3) complexes of appropriate concentrations (concentration range from 10^−7 to 10^−1 M; 500 µL) were added to the suspension of rat brain homogenate (10 w/v in distilled water; 500 µL), solution of sodium chloride (3 M; 2.5 mL) and water (20 mL). Subsequently, a solution of acetylcholine iodide (0.02 M; 2.0 mL) was added (=starting of the enzyme reaction). The enzyme activity was immediately determined using of automatic titrator RTS 822 (Radiometer, Bronshoj, Denmark). The IC50 values were calculated from a plot of percent inhibition of cholinesterases versus its concentration. […] Nonlinear regression was performed using software for statistical analysis GraphPad Prism version 4 for Windows (GraphPad Software, San Diego, CA, USA; www.graphpad.com).

By IC50 is commonly meant the concentration needed to halve the response being measured. Low readings indicate greater potency, high ones weaker potency. Compound `O=S(=O)([O-])[O-].[Fe+2]` [FeSO4, reference compound] had an IC50 greater than 1 mM. On the same count and under the same terms, the figure for `O=S(=O)([O-])[O-].[Mn+2]` [MnSO4, reference compound] is greater than 1 mM. Regarding `O=S(=O)([O-])[O-].[Ni+2]` [NiSO4, reference compound], the HillSlope is recorded as −0.3920 and the half-maximal inhibitory concentration (IC50) stood at 12.9 mM.

Compound [Mn3(phen)6(ttc)](ClO4)3 [compound 2] displayed a HillSlope of 0.2280 and a half-inhibitory concentration (IC50) of 0.0334 mM.
